Patent publication US20190350955A1, “METHODS AND PHARMACEUTICAL COMPOSITIONS FOR THE TREATMENT OF CARDIOMYOPATHIES” (INSERM (Institut National de la Sante et de la Recherche …, priority 2016, published 2019)

Tested on: Lmna^H222P/H222P mice
Test: NAD+ content quantification in heart and liver of treated Lmna H222P/H222P mice
Format: in vivo, mouse
Conditions: NR complemented diet 400 mg/kg/day, from 17 weeks of age for 9 weeks, vs chow-diet
Procedure: Mice were bred in an accredited animal facility (accreditation number: C-75-13-08). All experiments on mice were approved by the Comité d'éthique en expérimentation animate Charles Darwin No 5. Mice Lmna^H222P/H222P were backcrossed 8 times to 129S2/SvPasOrlRj strain mice to obtain pure genetic background. Male mice used for the studies were maintained under a 12 h light/12 h dark cycle at constant temperature (23° C.) with free access to food and water. Nicotinamide riboside (NR) complementation: Animals at 17 weeks of age were fed for 9 weeks with either a chow diet (A04: Scientific Animal Food & Engineering) or a chow diet complemented with 0.25% of NR (kindly provided by ChromaDex, Inc. California) corresponding to a dose of 400 mg/kg/day for a mouse weighing 25 g eating 4 g of food per day. […]
Fresh mouse tissues were homogenized and processed according to previous report (Sander B J, Oelshlegel F J & Brewer G J (1976) Quantitative analysis of pyridine nucleotides in red blood cells: a single-step extraction procedure. Anal. Biochem. 71: 29-36). The concentration of NAD+ in heart tissue was determined using a spectrophotometric assay at 550 nm based on an alcohol dehydrogenase cycling reaction, in which a Methyl Thiazolyl Tetrazolium (MTT) is reduced to Formazan. […]

Compound: NC(=O)c1ccc[n+]([C@@H]2O[C@H](CO)[C@@H](O)[C@H]2O)c1 [NR, nicotinamide riboside]
- NAD+ content in liver and heart: increase of their NAD+ content in both the liver and the heart
